Legend:
[1] = target: Human immunodeficiency virus type 1 reverse transcriptase (Human immunodeficiency virus 1) (UniProt Q72547); assay: In vitro inhibitory activity against human immunodeficiency virus type 1 (HIV-1) reverse transcriptase (RT) at a concentration of 10 ug/mL.
[2] = target: Human immunodeficiency virus type 1 reverse transcriptase (Human immunodeficiency virus 1, UniProt Q72547); assay: In vitro inhibitory activity against human immunodeficiency virus type 1 (HIV-1) reverse transcriptase (RT)

SMILES: CCN1c2ccc(Cl)cc2N(C)C(=O)c2cccnc21
- inhibition [1]: 99%
- IC50 [2]: 170 nM

SMILES: CCN1c2ncccc2C(=O)N(C)c2cc(C)cnc21
- inhibition [1]: 100%
- IC50 [2]: 760 nM

SMILES: O=C1Nc2ccccc2Nc2ncccc21
- inhibition [1]: 22%
- IC50 [2]: > 1000 nM

SMILES: Cc1cc(C)c2c(n1)Nc1ccccc1C(=O)N2
- inhibition [1]: 51%
- IC50 [2]: > 1000 nM

SMILES: CN1C(=O)c2cccnc2N(CCF)c2ccccc21
- inhibition [1]: 97%
- IC50 [2]: 1000 nM

SMILES: CCN1c2ccc(O)cc2N(C)C(=O)c2cccnc21
- inhibition [1]: 47%
- IC50 [2]: > 1000 nM

SMILES: CCN1c2ncccc2C(=O)Nc2c(O)ccnc21
- inhibition [1]: 94%
- IC50 [2]: > 1000 nM

SMILES: C=CCN1c2ncccc2C(=O)N(C)c2cccnc21
- inhibition [1]: 99%
- IC50 [2]: 850 nM

SMILES: CCN1c2cccc(C)c2N(Cc2ccccc2)C(=O)c2cccnc21
- inhibition [1]: 40%
- IC50 [2]: > 1000 nM

SMILES: CCN1c2cccc(C)c2N(C)C(=O)c2cccnc21
- inhibition [1]: 100%
- IC50 [2]: 240 nM

SMILES: O=C1Nc2cccnc2Nc2ccccc21
- inhibition [1]: 23%
- IC50 [2]: > 1000 nM

SMILES: CCN1c2cccc(C)c2NC(=O)c2cccnc21
- inhibition [1]: 100%
- IC50 [2]: 38 nM

SMILES: CCOC(=O)CN1c2ccccc2N(C)C(=O)c2cccnc21
- inhibition [1]: 56%
- IC50 [2]: 16000 nM

SMILES: CCN1c2ccccc2N(C)C(=O)c2cc(Cl)cnc21
- inhibition [1]: 91%
- IC50 [2]: 7600 nM

SMILES: CN1C(=O)c2cccnc2N(S(C)(=O)=O)c2ncccc21
- inhibition [1]: 77%
- IC50 [2]: > 1000 nM

SMILES: C=CCN1C(=O)c2cccnc2N(C(C)=O)c2ccccc21
- inhibition [1]: 83%
- IC50 [2]: > 1000 nM

SMILES: O=C1c2cccnc2Nc2ccccc2N1CCO
- inhibition [1]: 46%
- IC50 [2]: > 1000 nM

SMILES: CCN1c2cc(C)c(C)cc2N(C)C(=O)c2cccnc21
- inhibition [1]: 100%
- IC50 [2]: 40 nM

SMILES: CCN1c2cc(C(=O)c3ccccc3)ccc2N(C)C(=O)c2cccnc21
- inhibition [1]: 73%
- IC50 [2]: > 1000 nM

SMILES: CCN1c2ccc(C(N)=O)cc2N(C)C(=O)c2cccnc21
- inhibition [1]: 66%
- IC50 [2]: 27000 nM

SMILES: C=CCN1C(=O)c2cccnc2Nc2ccccc21
- inhibition [1]: 96%
- IC50 [2]: 1400 nM

SMILES: CCN1c2cc(C(F)(F)F)cc(Br)c2N(C)C(=O)c2cccnc21
- inhibition [1]: 71%
- IC50 [2]: > 1000 nM

SMILES: CN1C(=O)c2cccnc2N(C)c2ccccc21
- inhibition [1]: 85%
- IC50 [2]: > 1000 nM

SMILES: CCN1c2ccc(CNC(=O)C(C)(C)C)cc2N(C)C(=O)c2cccnc21
- inhibition [1]: 15%
- IC50 [2]: > 1000 nM

SMILES: O=C1Nc2cccnc2N(c2ccccc2)c2ncccc21
- inhibition [1]: 71%
- IC50 [2]: > 1000 nM

SMILES: CCN1c2cc(Cl)c(Cl)cc2N(C)C(=O)c2cccnc21
- inhibition [1]: 100%
- IC50 [2]: 62 nM

SMILES: CCN1C(=O)c2ccccc2N(CC)c2ncccc21
- inhibition [1]: 96%
- IC50 [2]: 690 nM

SMILES: Cc1ccnc2c1N(C)C(=O)c1cccnc1N2C1CC1
- inhibition [1]: 96%
- IC50 [2]: > 1000 nM

SMILES: CCN1C(=O)c2cccc(C)c2N(CC)c2ncccc21
- inhibition [1]: 99%
- IC50 [2]: 650 nM

SMILES: CCN1c2ncccc2C(=O)N(C)c2ccc(C)nc21
- inhibition [1]: 100%
- IC50 [2]: 170 nM

SMILES: CN1C(=O)c2ccccc2N(C)c2ccccc21
- inhibition [1]: 52%
- IC50 [2]: > 1000 nM

SMILES: CCN1c2ncccc2C(=O)N(C)c2cc(Cl)cnc21
- inhibition [1]: 99%
- IC50 [2]: > 1000 nM

SMILES: CN1C(=O)c2cccnc2N(CCF)c2ncccc21
- inhibition [1]: 96%
- IC50 [2]: 2900 nM

SMILES: CC(=O)N1c2ccccc2N(C)C(=O)c2cccnc21
- inhibition [1]: 72%
- IC50 [2]: > 1000 nM

SMILES: CCN1c2cc(C(F)(F)F)cc(Cl)c2N(C)C(=O)c2cccnc21
- inhibition [1]: 96%
- IC50 [2]: 290 nM

SMILES: CCN1c2ncccc2C(=O)Nc2c(OC)ccnc21
- inhibition [1]: 96%
- IC50 [2]: > 1000 nM

SMILES: CC(=O)N1c2ncccc2C(=O)N(C)c2cccnc21
- inhibition [1]: 73%
- IC50 [2]: 15300 nM

SMILES: CCN1c2ccc(C)cc2C(=O)N(C)c2cccnc21
- inhibition [1]: 99%
- IC50 [2]: 580 nM

SMILES: CCN1c2ncccc2C(=O)N(C)c2cc(Cl)c(N)nc21
- inhibition [1]: 98%
- IC50 [2]: 850 nM

SMILES: Cc1cccc2c1NC(=O)c1cccnc1N2
- inhibition [1]: 77%
- IC50 [2]: > 1000 nM

SMILES: C=CCN1C(=O)c2cccnc2Nc2ccc(Cl)cc21
- inhibition [1]: 79%
- IC50 [2]: > 1000 nM

SMILES: C#CCN1c2ncccc2C(=O)N(C)c2cccnc21
- inhibition [1]: 94%
- IC50 [2]: > 1000 nM

SMILES: CCN1c2ncccc2C(=O)Nc2c(C)ccnc21
- inhibition [1]: 100%
- IC50 [2]: 35 nM

SMILES: CCN1c2ncccc2C(=O)N(C)c2c(C)ccnc21
- inhibition [1]: 98%
- IC50 [2]: 1900 nM

SMILES: CCCN1c2ccccc2N(C)C(=O)c2cccnc21
- inhibition [1]: 99%
- IC50 [2]: 230 nM

SMILES: CCN1c2ccc(C)cc2N(C)C(=O)c2cccnc21
- inhibition [1]: 100%
- IC50 [2]: 190 nM

SMILES: CCN1C(=O)c2cccnc2N(CC)c2cccc(C)c21
- inhibition [1]: 90%
- IC50 [2]: 8000 nM

SMILES: CC(C)N1c2ccccc2N(C)C(=O)c2cccnc21
- inhibition [1]: 98%
- IC50 [2]: 200 nM

SMILES: CN(C)C(=O)CN1C(=O)c2cccnc2Nc2ccccc21
- inhibition [1]: 24%
- IC50 [2]: > 1000 nM

SMILES: CC[C@H](C)N1c2ncccc2NC(=O)c2cccnc21
- inhibition [1]: 88%
- IC50 [2]: > 1000 nM

SMILES: CN1C(=O)c2ccccc2N(C)c2ncccc21
- inhibition [1]: 74%
- IC50 [2]: > 1000 nM

SMILES: CCN1c2ccccc2N(C)C(=O)c2cccnc21
- inhibition [1]: 100%
- IC50 [2]: 350 nM

SMILES: CCCN1c2ncccc2C(=O)N(C)c2cccnc21
- inhibition [1]: 100%
- IC50 [2]: 450 nM

SMILES: COCCN1C(=O)c2cccnc2Nc2ccccc21
- inhibition [1]: 36%
- IC50 [2]: > 1000 nM

SMILES: CCN1c2ncccc2C(=O)N(C)c2cc(C)c(C)nc21
- inhibition [1]: 100%
- IC50 [2]: 240 nM

SMILES: CCN1c2cc([N+](=O)[O-])ccc2N(C)C(=O)c2cccnc21
- inhibition [1]: 99%
- IC50 [2]: 400 nM

SMILES: CCN1c2ccccc2N(CF)C(=O)c2cccnc21
- inhibition [1]: 85%
- IC50 [2]: > 1000 nM

SMILES: CCN1c2ccccc2C(=O)N(C)c2cccnc21
- inhibition [1]: 99%
- IC50 [2]: 500 nM

SMILES: CCN1c2ccc([N+](=O)[O-])cc2N(C)C(=O)c2cccnc21
- inhibition [1]: 56%
- IC50 [2]: > 1000 nM

SMILES: CCOC(=O)N1c2ccccc2N(C)C(=O)c2cccnc21
- inhibition [1]: 13%
- IC50 [2]: > 1000 nM

SMILES: CN1C(=O)c2cccnc2N(CCO)c2ccccc21
- inhibition [1]: 58%
- IC50 [2]: > 1000 nM

SMILES: CC(C)N1c2ncccc2NC(=O)c2cccnc21
- inhibition [1]: 99%
- IC50 [2]: 590 nM

SMILES: CCN1c2ccc(CO)cc2N(C)C(=O)c2cccnc21
- inhibition [1]: 78%
- IC50 [2]: > 1000 nM

SMILES: CCN1c2ccc(C(=O)O)cc2N(C)C(=O)c2cccnc21
- inhibition [1]: 18%
- IC50 [2]: > 1000 nM

SMILES: CC[C@@H](C)N1c2ncccc2NC(=O)c2cccnc21
- inhibition [1]: 85%
- IC50 [2]: > 1000 nM

SMILES: CCN1c2nc(C)ccc2C(=O)N(C)c2cccnc21
- inhibition [1]: 65%
- IC50 [2]: > 1000 nM

SMILES: CN1C(=O)c2cccnc2N(C(C)(C)C)c2ncccc21
- inhibition [1]: 87%
- IC50 [2]: 11000 nM

SMILES: CCN1c2cc(NC(C)=O)ccc2N(C)C(=O)c2cccnc21
- inhibition [1]: 49%
- IC50 [2]: > 1000 nM

SMILES: Cc1cc2c(cc1C)N(CCN(C)C)c1ncccc1C(=O)N2C
- inhibition [1]: 0%
- IC50 [2]: > 1000 nM

SMILES: CCN1c2ncc(Cl)cc2C(=O)N(C)c2cccnc21
- inhibition [1]: 87%
- IC50 [2]: 3500 nM

SMILES: C=CCN1C(=O)c2cccnc2N(C(=O)CC)c2ccccc21
- inhibition [1]: 72%
- IC50 [2]: > 1000 nM

SMILES: O=C1Nc2cccnc2N(C2CCCC2)c2ncccc21
- inhibition [1]: 94%
- IC50 [2]: > 1000 nM

SMILES: CCN1c2ccc([N+](=O)[O-])cc2N(C)C(=O)c2cc(Br)cnc21
- inhibition [1]: 64%
- IC50 [2]: > 1000 nM

SMILES: N#Cc1ccnc2c1NC(=O)c1cccnc1N2C1CC1
- inhibition [1]: 96%
- IC50 [2]: 1250 nM

SMILES: CN1C(=O)c2cccnc2N(CC(=O)O)c2ccccc21
- inhibition [1]: 60%
- IC50 [2]: > 1000 nM

SMILES: CCN1c2ccccc2C(=O)N(C)c2ccccc21
- inhibition [1]: 80%
- IC50 [2]: > 1000 nM

SMILES: CN1C(=O)c2cccnc2N(CC(=O)OC(C)(C)C)c2ccccc21
- inhibition [1]: 87%
- IC50 [2]: > 1000 nM

SMILES: Cc1ccnc2c1NC(=O)c1cccnc1N2C1CC1
- inhibition [1]: 100%

Source: ChEMBL document CHEMBL1125844, “Novel non-nucleoside inhibitors of HIV-1 reverse transcriptase. 1. Tricyclic pyridobenzo- and dipyridodiazepinones” (J Med Chem, 1991)
